For nine molecules, IC50 and inhibition results are on record in patent US20240174637A1, “DEGRADERS OF GRK2 AND USES THEREOF” (Sonata Therapeutics, Inc., priority 2021, published 2024).

Read-outs that look alike come from different tables or passages of the source.

A word on the IC50: it is the concentration that gives 50% inhibition.

In assay [1] the target is T1, GRK2 (Homo sapiens, UniProt P25098).
T1 sequence (P25098 1-689): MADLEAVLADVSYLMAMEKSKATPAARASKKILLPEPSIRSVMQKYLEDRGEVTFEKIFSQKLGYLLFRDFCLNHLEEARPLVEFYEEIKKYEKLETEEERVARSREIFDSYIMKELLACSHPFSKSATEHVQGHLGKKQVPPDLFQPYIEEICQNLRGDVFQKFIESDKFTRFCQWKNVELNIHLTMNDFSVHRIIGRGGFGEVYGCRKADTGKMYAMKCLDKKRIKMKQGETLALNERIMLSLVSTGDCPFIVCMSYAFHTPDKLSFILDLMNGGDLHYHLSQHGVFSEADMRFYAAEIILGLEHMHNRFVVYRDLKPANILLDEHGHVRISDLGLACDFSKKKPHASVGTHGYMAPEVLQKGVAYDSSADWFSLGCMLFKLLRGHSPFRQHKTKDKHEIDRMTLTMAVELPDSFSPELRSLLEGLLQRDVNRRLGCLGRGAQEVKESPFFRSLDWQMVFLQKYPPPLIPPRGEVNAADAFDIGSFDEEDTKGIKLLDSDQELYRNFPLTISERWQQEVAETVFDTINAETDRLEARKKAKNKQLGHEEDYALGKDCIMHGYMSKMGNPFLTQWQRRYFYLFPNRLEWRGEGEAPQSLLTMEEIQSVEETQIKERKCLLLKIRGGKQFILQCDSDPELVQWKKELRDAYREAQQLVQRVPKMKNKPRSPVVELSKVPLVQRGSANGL
The assay can be described thus: GRK2 Inhibition Assay (TR-FRET, Example 1). It is filed as biochemical. Conditions: TR-FRET, 7 μM ATP; read-out: Enzymatic GRK2 Assay: IC50 (nM) (Example 1). As to the method:
Assay: GRK2 enzyme (1 nM final concentration) was diluted in 25 mM HEPES, 10 mM MgCl2, 2 mM DTT, 0.01% Tween-20, and 1 mM EGTA. Then the GRK2 mixture was added into ProxiPlate-384 white plate and pre-incubated for 30 min with test compounds at room temperature. ATP (7 μM final concentration) and Ulight TopoIIα (50 nM final concentration) were added into the assay plate to initiate the reaction and the mixture was incubated at room temperature for 90 min. Then, Eu anti-TopoIIα (0.12 nM final concentration), BSA (0.01% final concentration), and EDTA (11 mM final concentration) in LANCE assay buffer were added into each well. After 60 min incubation time at room temperature, TR-FRET signal was measured by EnVision plate reader.
(TR-FRET usually uses a lanthanide donor and a delayed reading to cut background.)

Another assay deals with PAXF1657 EV. The assay can be described thus: 7-day cellular proliferation assay (CellTiter-Glo), PAXF1657 EV. It is filed as cell-based. The following applies: proliferation, read-out: GeoMean IC50 (UM) PAXF1657 EV. As to the method:
(§1) In order to identify compounds specific for GRK2, we generated two isogenic cell line pairs of the pancreatic cancer cell line PAXF1657, a pair of cells stably overexpressing GRK2 cDNA or the control empty vector and a cell line pair of PAXF1657 GRK2 knockout clonal cells versus non-targeting control clonal cells.
(§2) Proliferation Assay: Cellular anti-proliferative activity of compounds was assessed by using the pancreatic cancer cell line, PAXF1657, stably overexpressing GRK2 cDNA or the control empty vector, as well as the parental urinary bladder cancer cell line, 5637. In addition, we also took advantage of GRK2 knockout cell lines that were generated via CRISPR. Cell lines were seeded into tissue culture treated, white-walled, 96-well plates at a density of 500 cells/well in RPMI1640 media supplemented with 10% H.I. FBS and penicillin/streptomycin. Plates were incubated overnight at 37° C., 5% CO2 to allow cells to adhere to the wells. GRK2 inhibitors were added to the cells using a 10-point dilution series with a final concentration ranging from 30 μM-0.0002 μM in 0.3% DMSO. At the time of compound addition, a set of plates, that were not treated with compounds, were collected and cell viability was measured using CellTiter-Glo (Promega). CellTiter-Glo reagent was added to the designed plates and luminescence was measuring using a Biotek Synergy plate reader. The compound treated cells were incubated for 3 days at 37° C., 5% CO2. The media was then aspirated from each well and replaced with fresh media containing GRK2 inhibitors. The compound treated cells were then incubated for an additional 4 days at 37° C., 5% CO2. Cell viability was assessed and at end of the 7-day compound treatment by CellTiterGlo.
In general terms: ATP-based viability assays read luminescence as a measure of living cells.

The subject of another assay is PAXF1657 KO Clone #4. Put plainly: 7-day cellular proliferation assay (CellTiter-Glo), PAXF1657 KO Clone #4. The following applies: proliferation, read-out: GeoMean IC50 (uM) PAXF1657 KO Clone #4. The class given is cell-based. How it is done: as §1, §2
The target in assay [2] is T1, GRK2. Put plainly: GRK2 Degradation Assay and Western Blot in PAXF1657 cells. It is filed as cell-based. The arrangement: endogenous in cells; host or cells: PAXF1657. Conditions: read-out: Degradation Assay - 3 point: Degradation (%). As to the method:
General Protocol: Degradation Assay and Western Blot. PAXF1657 cells were plated in 6-well, 24-well plates or 60 mm tissue culture treated dishes and incubated at 37° C. until 70% confluency. The media was aspirated, and the cells were treated with fresh media containing the compounds in the concentration range of 0 μM to 10 μM for a period of 6 to 24 hours. At the desired time points the cells were washed twice with cold PBS and lysed with lysis buffer (ice cold PBS+1% NP40 with 1/100 protease/phosphatase inhibitors) on ice for 8 mins followed by sonication at 70% intensity pulses for 10 seconds. The cells were centrifuged at 20000 g for 8 min at 4° C. The supernatants were collected and stored at −80° C.
Samples were mixed with NuPAGE LDS sample buffer and NuPAGE sample reducing buffer (3×), vortexed and heated at 95° C. for 10 min, and then analyzed by SDS-PAGE (NuPAGE 4-12%) followed by transfer to nitrocellulose membrane. […] The membranes were washed three times with TBST and incubated with GRK2 or R-actin antibodies in 5% milk in TBST at 4° C. overnight. The membranes were washed three times with TBST and incubated with anti-mouse IgG-HRP or anti-rabbit IgG-HRP at room temperature for 2 hours in 5% milk in TBST. The membranes were washed three times with TBST and developed with ECL Dura, ECL femto or ECL atto substrates.
In general terms: Immunoblotting shows a protein as a band on a membrane.

With `C[C@H](NC(=O)c1cccc(NCc2nnc(-c3ccncn3)n2C)c1)c1cc(OCCCCCCOCCOCCOCCCCCC(=O)Nc2cccc3c2CN(C2CCC(=O)NC2=O)C3=O)ccc1F` (stereo partly drawn) [Compound D53, N-((1S)-1-(5-((6-(2-(2-((6-((2-(2,6-dioxopiperidin-3-yl)-1-oxoisoindolin-4-yl)amino)-6-oxohexyl)oxy)ethoxy)ethoxy)hexyl)oxy)-2-fluorophenyl)ethyl)-3-(((4-methyl-5-(pyrimidin-4-yl)-4H-1,2,4-triazol-3-yl)methyl)amino)benzamide], the IC50 on GRK2 [1] was in the range of 100 to 1000 nM.
In the case of `C[C@@H](NC(=O)c1cccc(NCc2nnc(-c3ccncn3)n2C)c1)c1cc(OCCCCCCOCCOCCOCCCCCC(=O)Nc2cccc3c2CN(C2CCC(=O)NC2=O)C3=O)ccc1F` (stereo partly drawn) [Compound D54, N-((1R)-1-(5-((6-(2-(2-((6-((2-(2,6-dioxopiperidin-3-yl)-1-oxoisoindolin-4-yl)amino)-6-oxohexyl)oxy)ethoxy)ethoxy)hexyl)oxy)-2-fluorophenyl)ethyl)-3-(((4-methyl-5-(pyrimidin-4-yl)-4H-1,2,4-triazol-3-yl)methyl)amino)benzamide], the concentration for half-maximal inhibition (IC50) on GRK2 [1] was less than 100 nM.
Take `C[C@H](NC(=O)c1cccc(NCc2nnc(-c3ccncn3)n2C)c1)c1cccc(OCCCCCCOCCOCCOCCCCCC(=O)Nc2cccc3c2CN(C2CCC(=O)NC2=O)C3=O)c1` (stereo partly drawn) [Compound D55, N-((1S)-1-(3-((6-(2-(2-((6-((2-(2,6-dioxopiperidin-3-yl)-1-oxoisoindolin-4-yl)amino)-6-oxohexyl)oxy)ethoxy)ethoxy)hexyl)oxy)phenyl)ethyl)-3-(((4-methyl-5-(pyrimidin-4-yl)-4H-1,2,4-triazol-3-yl)methyl)amino)benzamide]: the IC50 on GRK2 [1] was less than 100 nM.
`Cc1ncsc1-c1ccc(CNC(=O)[C@@H]2C[C@@H](O)CN2C(=O)[C@@H](NC(=O)CCCCCOCCOCCOCCCCCCOc2ccc(F)c([C@H](C)NC(=O)c3cccc(NCc4nnc(-c5ccncn5)n4C)c3)c2)C(C)(C)C)cc1` [Compound D74, (2S,4R)-1-((S)-2-(tert-butyl)-22-(4-fluoro-3-((S)-1-(3-(((4-methyl-5-(pyrimidin-4-yl)-4H-1,2,4-triazol-3-yl)methyl)amino)benzamido)ethyl)phenoxy)-4-oxo-10,13,16-trioxa-3-azadocosan-1-oyl)-4-hydroxy-N-(4-(4-methylthiazol-5-yl)benzyl)pyrrolidine-2-carboxamide]: the IC50 at GRK2 [1] lay within 100 to 1000 nM.
In the case of `Cc1ncsc1-c1ccc(CNC(=O)[C@@H]2C[C@@H](O)CN2C(=O)[C@@H](NC(=O)CCCCCOCCOCCOCCCCCCOc2ccc(F)c([C@@H](C)NC(=O)c3cccc(NCc4nnc(-c5ccncn5)n4C)c3)c2)C(C)(C)C)cc1` [Compound D75, (2S,4R)-1-((S)-2-(tert-butyl)-22-(4-fluoro-3-((R)-1-(3-(((4-methyl-5-(pyrimidin-4-yl)-4H-1,2,4-triazol-3-yl)methyl)amino)benzamido)ethyl)phenoxy)-4-oxo-10,13,16-trioxa-3-azadocosan-1-oyl)-4-hydroxy-N-(4-(4-methylthiazol-5-yl)benzyl)pyrrolidine-2-carboxamide], the IC50 at GRK2 [1] was less than 100 nM.
As to `Cn1c(CNc2cccc(C(=O)N[C@@H]3CCOc4ccc(OCCCCCCOCCOCCOCCCCCC(=O)Nc5cccc6c5CN(C5CCC(=O)NC5=O)C6=O)cc43)c2)nnc1-c1ccncn1` (stereo partly drawn) [Compound D187, N-((4R)-6-(6-(2-(2-(6-(2-(2,6-dioxopiperidin-3-yl)-1-oxoisoindolin-4-ylamino)-6-oxohexyloxy)ethoxy)ethoxy)hexyloxy)chroman-4-yl)-3-((4-methyl-5-(pyrimidin-4-yl)-4H-1,2,4-triazol-3-yl)methylamino)benzamide], the half-maximal inhibitory concentration (IC50) is 2090 nM in the assay with PAXF1657 EV and greater than 30 µM with PAXF1657 KO Clone #4. The inhibition at 0.3 µM on GRK2 [2] (Conc 0.3 uM) is 11.8%. Besides, at GRK2 [2] (Conc 1 uM), the inhibition at 1 µM is 23.8%. Besides, at GRK2 [2] (Conc 3 uM), the inhibition at 3 µM was found to be 63.1%.
For `Cn1c(CNc2cccc(C(=O)N[C@@H]3CCOc4ccc(OCCCCCCOCCOCCOCCCCCC(=O)N5CCN(c6ccc7c(c6)CN(C6CCC(=O)NC6=O)C7=O)CC5)cc43)c2)nnc1-c1ccncn1` (stereo partly drawn) [Compound D188, N-((4R)-6-(6-(2-(2-(6-(4-(2-(2,6-dioxopiperidin-3-yl)-1-oxoisoindolin-5-yl)piperazin-1-yl)-6-oxohexyloxy)ethoxy)ethoxy)hexyloxy)chroman-4-yl)-3-((4-methyl-5-(pyrimidin-4-yl)-4H-1,2,4-triazol-3-yl)methylamino)benzamide], the IC50 in the assay with PAXF1657 EV stood at 1260 nM. The IC50 with PAXF1657 KO Clone #4 was greater than 30 µM. Also, at GRK2 [2], the inhibition at 0.3 µM was 56.9%, the inhibition at 1 µM stood at 67.7% and the inhibition at 3 µM is 78.2%.
As to `Cn1c(CNc2cccc(C(=O)NCc3cccc(OCCCCCOCCCOCC(=O)N4CCN(c5ccc6c(c5)CN(C5CCC(=O)NC5=O)C6=O)CC4)c3)c2)nnc1-c1ccncn1` (stereo not shown) [Compound D189, N-(3-((5-(3-(2-(4-(2-(2,6-dioxopiperidin-3-yl)-1-oxoisoindolin-5-yl)piperazin-1-yl)-2-oxoethoxy)propoxy)pentyl)oxy)benzyl)-3-(((4-methyl-5-(pyrimidin-4-yl)-4H-1,2,4-triazol-3-yl)methyl)amino)benzamide], the IC50 with PAXF1657 EV was 420 nM; with PAXF1657 KO Clone #4 it was greater than 30 µM. In addition, the inhibition at 0.3 µM on GRK2 [2] (Conc 0.3 uM) came out at 2.78%. Moreover, at GRK2 [2] (Conc 1 uM), the inhibition at 1 µM turned out to be 35.8%. Besides, the inhibition at 3 µM at GRK2 [2] (Conc 3 uM) is 58.5%.
For the molecule `Cn1c(CNc2cccc(C(=O)NCc3cccc(OCCCCCCOCCOCCOCCC(=O)Nc4cccc5c4CN(C4CCC(=O)NC4=O)C5=O)c3)c2)nnc1-c1ccncn1` (stereo not shown) [Compound D195, N-(3-(6-(2-(2-(3-(2-(2,6-dioxopiperidin-3-yl)-1-oxoisoindolin-4-ylamino)-3-oxopropoxy)ethoxy)ethoxy)hexyloxy)benzyl)-3-((4-methyl-5-(pyrimidin-4-yl)-4H-1,2,4-triazol-3-yl)methylamino)benzamide], the IC50 in the assay with PAXF1657 EV is 1090 nM; with PAXF1657 KO Clone #4, greater than 30 µM. At GRK2 [2] (Conc 0.3 uM), the inhibition at 0.3 µM was -46.4%. The inhibition at 1 µM at GRK2 [2] (Conc 1 uM) stood at 9.8%. Besides, on GRK2 [2] (Conc 3 uM), the inhibition at 3 µM stood at 32.1%.
